pKi: −log10 of the molar value.
Key:
STAT6 protein = molecular target: T1, STAT6 protein (Homo sapiens, UniProt P42226); test: Fluorescence polarization (FP) binding assay, STAT6; conditions: FP competition, 5 nM fluorescein-labeled tracer, 200 nM protein, PBS pH7.4; read-out: Binding STAT6
T1 sequence (P42226 1-847): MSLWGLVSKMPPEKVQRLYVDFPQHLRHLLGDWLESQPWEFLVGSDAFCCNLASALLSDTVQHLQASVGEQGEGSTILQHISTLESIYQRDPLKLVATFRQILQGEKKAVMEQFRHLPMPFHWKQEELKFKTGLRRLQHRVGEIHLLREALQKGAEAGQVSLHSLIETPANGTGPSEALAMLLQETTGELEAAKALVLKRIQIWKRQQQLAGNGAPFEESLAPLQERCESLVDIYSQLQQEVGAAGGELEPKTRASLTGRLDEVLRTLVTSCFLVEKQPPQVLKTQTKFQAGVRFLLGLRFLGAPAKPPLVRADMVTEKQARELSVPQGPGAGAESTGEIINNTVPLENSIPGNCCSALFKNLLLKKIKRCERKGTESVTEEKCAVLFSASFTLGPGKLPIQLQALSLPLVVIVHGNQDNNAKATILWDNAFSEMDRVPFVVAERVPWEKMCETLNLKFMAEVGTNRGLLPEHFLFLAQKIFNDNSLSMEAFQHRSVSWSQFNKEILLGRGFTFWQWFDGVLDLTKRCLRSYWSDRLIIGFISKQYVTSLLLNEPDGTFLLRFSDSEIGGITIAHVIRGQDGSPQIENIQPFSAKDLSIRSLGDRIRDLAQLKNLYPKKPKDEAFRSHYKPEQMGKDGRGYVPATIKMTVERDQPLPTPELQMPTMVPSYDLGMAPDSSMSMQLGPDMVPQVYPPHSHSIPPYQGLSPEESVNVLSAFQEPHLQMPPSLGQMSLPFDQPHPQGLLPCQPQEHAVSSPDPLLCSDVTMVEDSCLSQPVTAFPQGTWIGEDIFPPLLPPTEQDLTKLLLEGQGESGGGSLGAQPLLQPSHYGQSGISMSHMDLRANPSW
In short: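 5 nM fluorescein tracer + 200 nM STAT protein; PBS pH 7.4, 0.01% BGG, 0.01% Tween-20, 2 mM DTT; shake 15 min, 1 h RT equilibrium; FP read; nonlinear fit for inhibition constants.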

STAT5A = molecular target: T2, STAT5A (Homo sapiens, UniProt P42229); test: Fluorescence polarization (FP) binding assay, STAT5A; conditions: FP competition, 5 nM fluorescein-labeled tracer, 200 nM protein, PBS pH7.4
T2 sequence (P42229 1-794): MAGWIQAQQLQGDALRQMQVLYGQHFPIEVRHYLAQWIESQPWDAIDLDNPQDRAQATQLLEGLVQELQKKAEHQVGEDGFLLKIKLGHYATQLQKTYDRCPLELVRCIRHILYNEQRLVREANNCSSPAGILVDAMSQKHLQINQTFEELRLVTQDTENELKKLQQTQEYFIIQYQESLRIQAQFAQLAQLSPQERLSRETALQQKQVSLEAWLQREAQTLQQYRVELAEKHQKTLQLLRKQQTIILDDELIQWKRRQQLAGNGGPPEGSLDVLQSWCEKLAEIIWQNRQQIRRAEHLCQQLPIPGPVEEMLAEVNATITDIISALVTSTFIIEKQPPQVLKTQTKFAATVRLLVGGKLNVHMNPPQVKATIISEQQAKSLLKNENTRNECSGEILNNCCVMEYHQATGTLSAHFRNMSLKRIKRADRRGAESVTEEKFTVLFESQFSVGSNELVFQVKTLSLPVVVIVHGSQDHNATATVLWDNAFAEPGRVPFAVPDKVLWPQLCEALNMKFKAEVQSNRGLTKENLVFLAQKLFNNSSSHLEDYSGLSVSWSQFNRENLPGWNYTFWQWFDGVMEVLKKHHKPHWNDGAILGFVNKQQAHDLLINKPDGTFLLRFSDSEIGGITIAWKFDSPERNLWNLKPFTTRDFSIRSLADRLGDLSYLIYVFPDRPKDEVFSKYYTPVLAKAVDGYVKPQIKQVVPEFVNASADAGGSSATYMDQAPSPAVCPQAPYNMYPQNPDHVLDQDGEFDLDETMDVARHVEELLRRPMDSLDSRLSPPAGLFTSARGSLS
Description: Evaluation of the activity of the inhibitors may be accomplished by fluorescence polarization (FP) experiments. A representative general protocol is the following:
Fluorescence polarization (FP) experiments are performed in black round-bottom plates using the CLARIOstar microplate reader. To each well, fluorescein-labeled tracer and STAT5 or STAT6 protein are added in assay buffer. […] The inhibition constants are determined as the concentration of the STAT5 or STAT6 at which 50% of the ligand is bound.
Fluorescence polarization (FP) experiments were performed in 96-well, black round-bottom plates (Microfluor 2, Fisher Scientific) using the CLARIOstar microplate reader (BMG Labtech). To each well, 5 nM of fluoresceinlabeled tracer and 200 nM of STAT5 and/or STAT6 protein were added to a final volume of 100 μl in the assay buffer (PBS pH7.4+0.01% BGG+0.01% Tween-20, 2 mM DTT). The plate was mixed on a shaker for 15 m and incubated at room temperature for 1 h to reach equilibrium. […] All experimental data were analyzed using Prism 8.0 software (GraphPad Software), and the inhibition constants were determined by nonlinear curve fitting as the concentration of the STAT5 and/or STAT6 at which 50% of the ligand is bound.

| pKi (STAT6 protein) | pKi (STAT5A) | Structure (SMILES) |
| --- | --- | --- |
| 6.00 to 7.00 | < 5.00 | CC(C)(C)[C@H](NC(=O)/C=C/c1ccc(C(F)(F)P(=O)(O)O)cc1)C(=O)N1CCC[C@H]1C(=O)N(c1ccccc1)c1ccc(I)cc1 [Compound 1, (difluoro(4-((E)-3-(((S)-1-((S)-2-((4-iodophenyl)(phenyl)carbamoyl)pyrrolidin-1-yl)-3,3-dimethyl-1-oxobutan-2-yl)amino)-3-oxoprop-1-en-1-yl)phenyl)methyl)phosphonic acid] |
| 6.00 to 7.00 | 5.00 to 6.00 | CC(C)(C)[C@H](NC(=O)c1cc2cc(C(F)(F)P(=O)(O)O)ccc2[nH]1)C(=O)N1CCC[C@H]1C(=O)N(c1ccccc1)c1ccc(I)cc1 [Compound 2, (difluoro(2-(((S)-1-((S)-2-((4-iodophenyl)(phenyl)carbamoyl)pyrrolidin-1-yl)-3,3-dimethyl-1-oxobutan-2-yl)carbamoyl)-1H-indol-5-yl)methyl)phosphonic acid] |
| 5.00 to 6.00 | < 5.00 | CC(=O)N1CC[C@H]2CC[C@@H](C(=O)NC(c3ccccc3)c3ccccc3)N2C(=O)[C@@H](NC(=O)c2cc3cc(C(F)(F)P(=O)(O)O)ccc3[nH]2)C1 [Compound 3, ((2-(((5S,8S,10aR)-3-acetyl-8-(benzhydrylcarbamoyl)-6-oxodecahydropyrrolo[1,2-a][1,5]diazocin-5-yl)carbamoyl)-1H-indol-5-yl)difluoromethyl)phosphonic acid] |
| < 5.00 | < 5.00 | CC(=O)N1CC[C@H]2CC[C@@H](C(=O)NC(c3ccccc3)c3ccccc3)N2C(=O)[C@@H](NC(=O)/C=C/c2ccc(C(F)(F)P(=O)(O)O)cc2)C1 [Compound 5, ((4-((E)-3-(((5S,8S,10aR)-3-acetyl-8-(benzhydrylcarbamoyl)-6-oxodecahydropyrrolo[1,2-a][1,5]diazocin-5-yl)amino)-3-oxoprop-1-en-1-yl)phenyl)difluoromethyl)phosphonic acid] |
| 5.00 to 6.00 | < 5.00 | CC(=O)N1CC[C@H]2CC[C@@H](C(=O)Nc3ccc(I)cc3)N2C(=O)[C@@H](NC(=O)/C=C/c2ccc(C(F)(F)P(=O)(O)O)cc2)C1 [Compound 6, ((4-((E)-3-(((5S,8S,10aR)-3-acetyl-8-((4-iodophenyl)carbamoyl)-6-oxodecahydropyrrolo[1,2-a][1,5]diazocin-5-yl)amino)-3-oxoprop-1-en-1-yl)phenyl)difluoromethyl)phosphonic acid] |
| 5.00 to 6.00 | < 5.00 | CC(=O)N1CC[C@H]2CC[C@@H](C(=O)N(C)C(c3ccccc3)c3ccccc3)N2C(=O)[C@@H](NC(=O)c2cc3cc(C(F)(F)P(=O)(O)O)ccc3[nH]2)C1 [Compound 7, ((2-(((5S,8S,10aR)-3-acetyl-8-(benzhydryl(methyl)carbamoyl)-6-oxodecahydropyrrolo[1,2-a][1,5]diazocin-5-yl)carbamoyl)-1H-indol-5-yl)difluoromethyl)phosphonic acid] |
| < 5.00 | < 5.00 | NCCCC[C@H](NC(=O)/C=C/c1ccc(C(F)(F)P(=O)(O)O)cc1)C(=O)N1CCC[C@H]1C(=O)N1CCc2ccccc2C1 [Compound 8, ((4-((E)-3-(((S)-6-amino-1-oxo-1-((S)-2-(1,2,3,4-tetrahydroisoquinoline-2-carbonyl)pyrrolidin-1-yl)hexan-2-yl)amino)-3-oxoprop-1-en-1-yl)phenyl)difluoromethyl)phosphonic acid] |
| 5.00 to 6.00 | < 5.00 | NCCCC[C@H](NC(=O)c1cc2cc(C(F)(F)P(=O)(O)O)ccc2[nH]1)C(=O)N1CCC[C@H]1C(=O)N1CCc2ccccc2C1 [Compound 9, ((2-(((S)-6-amino-1-oxo-1-((S)-2-(1,2,3,4-tetrahydroisoquinoline-2-carbonyl)pyrrolidin-1-yl)hexan-2-yl)carbamoyl)-1H-indol-5-yl)difluoromethyl)phosphonic acid] |
| 5.00 to 6.00 | < 5.00 | CC(C)(C)[C@H](NC(=O)c1cc2cc(C(F)(F)P(=O)(O)O)ccc2[nH]1)C(=O)N1CCC[C@H]1C(=O)N[C@@H]1CCCc2ccccc21 [Compound 10, ((2-(((S)-3,3-dimethyl-1-oxo-1-((S)-2-(((R)-1,2,3,4-tetrahydronaphthalen-1-yl)carbamoyl)pyrrolidin-1-yl)butan-2-yl)carbamoyl)-1H-indol-5-yl)difluoromethyl)phosphonic acid] |
| 5.00 to 6.00 | < 5.00 | CC(C)(C)[C@H](NC(=O)c1cc2cc(C(F)(F)P(=O)(O)O)ccc2[nH]1)C(=O)N1CCC[C@H]1C(=O)N[C@H]1CCCc2ccccc21 [Compound 11, ((2-(((S)-3,3-dimethyl-1-oxo-1-((S)-2-(((S)-1,2,3,4-tetrahydronaphthalen-1-yl)carbamoyl)pyrrolidin-1-yl)butan-2-yl)carbamoyl)-1H-indol-5-yl)difluoromethyl)phosphonic acid] |
| 5.00 to 6.00 | < 5.00 | CC(C)(C)[C@H](NC(=O)c1cc2cc(C(F)(F)P(=O)(O)O)ccc2[nH]1)C(=O)N1CCC[C@H]1C(=O)NC1CCc2ccccc21 (stereo partly drawn) [Compound 12, ((2-(((2S)-1-((2S)-2-((2,3-dihydro-1H-inden-1-yl)carbamoyl)pyrrolidin-1-yl)-3,3-dimethyl-1-oxobutan-2-yl)carbamoyl)-1H-indol-5-yl)difluoromethyl)phosphonic acid] |
| 5.00 to 6.00 | < 5.00 | CC(C)(C)[C@H](NC(=O)c1cc2cc(C(F)(F)P(=O)(O)O)ccc2[nH]1)C(=O)N1CCC[C@H]1C(=O)N1CCN(c2ccccc2)CC1 [Compound 13, ((2-(((S)-3,3-dimethyl-1-oxo-1-((S)-2-(4-phenylpiperazine-1-carbonyl)pyrrolidin-1-yl)butan-2-yl)carbamoyl)-1H-indol-5-yl)difluoromethyl)phosphonic acid] |
| 5.00 to 6.00 | < 5.00 | CC(C)(C)[C@H](NC(=O)c1cc2cc(C(F)(F)P(=O)(O)O)ccc2[nH]1)C(=O)N1CCC[C@H]1C(=O)NC(c1ccccc1)c1ccccc1 [Compound 14, ((2-(((S)-1-((S)-2-(benzhydrylcarbamoyl)pyrrolidin-1-yl)-3,3-dimethyl-1-oxobutan-2-yl)carbamoyl)-1H-indol-5-yl)difluoromethyl)phosphonic acid] |
| 5.00 to 6.00 | 5.00 to 6.00 | CC(C)(C)[C@H](NC(=O)c1cc2cc(C(F)(F)P(=O)(O)O)ccc2[nH]1)C(=O)N1CCC[C@H]1C(=O)Nc1ccc2ccccc2c1 [Compound 15, ((2-(((S)-3,3-dimethyl-1-((S)-2-(naphthalen-2-ylcarbamoyl)pyrrolidin-1-yl)-1-oxobutan-2-yl)carbamoyl)-1H-indol-5-yl)difluoromethyl)phosphonic acid] |

— patent US20230295200A1 (REGENTS OF THE UNIVERSITY OF MICHIGAN, priority 2022, published 2023)
